Results taken from patent publication US11407750B2, “Derivatives of an FGFR inhibitor” (Incyte Corporation, priority 2019, dated 2022).
Read-outs that look alike come from different tables or passages of the source.

Assays:
[1] = Compound 1 human absorption, metabolism, and excretion study (single oral dose of [14C] Compound 1); format: in vivo; details: for % of Administered Dose in Feces Samples, Sum: sum 0-144 h; for % Total Radioactivity Pool of Hamilton Pools (0-24 h): blood/plasma samples
Protocol: An open label-study was conducted, assessing the mass balance, pharmacokinetics, and metabolite profiles of a single oral dose of [14C] Compound 1:
Blood/plasma, urine, and feces were collected from participants for 4 to 10 days after administration.
Human discharge criteria includes that a minimum of 90% of the administered radioactive dose is recovered; and that less than or equal to 1% of the administered radioactive dose is recovered in excreta (urine and feces combined) in 2 consecutive 24-hour urine and fecal collection samples.

FGFR2 = FGFR2 (Homo sapiens (Human), UniProt P21802); test: FGFR Enzymatic Assay (FRET peptide phosphorylation), FGFR2; format: biochemical
Protocol: (§1) The inhibitor potency of the exemplified compounds was determined in an enzyme discontinuous assay that measures peptide phosphorylation using FRET measurements to detect product formation. Inhibitors were serially diluted in DMSO and a volume of 0.2 μL was transferred to the wells of a 384-well plate. For the isoforms of FGFR (−1, −2, −3 wild-type and mutant isoforms, −4) including phosphorylated and un-phosphorylated proteins, a 5 μL/well volume of enzyme diluted in assay buffer (50 mM HEPES, 10 mM MgCl2, 1 mM EGTA, 0.01% Tween-20, 5 mM DTT, pH 7.5) was added to the plate and pre-incubated with inhibitor for 5 to 15 minutes at ambient temperature. Appropriate controls (enzyme blank and enzyme with no inhibitor) were included on the plate. The reaction was initiated by the addition of a 5 μL/well volume containing both biotinylated […] […] The ATP Km values were pre-determined for each FGFR isoform in a separate series of experiments. […] The plate was allowed to equilibrate for ˜10 minutes at ambient temperature before scanning on a PheraStar plate reader (BMG Labtech) instrument.
(§2) Either GraphPad prism or XLfit was used to analyze the data. The IC50 values were derived by fitting the data to a four parameter logistic equation producing a sigmoidal dose-response curve with a variable Hill coefficient. Prism equation: Y=Bottom+(Top−Bottom)/(1+10^((Log IC50−X)*Hill slope)); […]

[2] = biological target: tyrosine-phosphorylated Fibroblast Growth Factor Receptor 2 alpha (FGFR2α) in KATO III cells (Homo sapiens, UniProt P21802); test: KATOIII Whole Blood pFGFR2α ELISA Assay; format: cell-based
Protocol: To measure tyrosine-phosphorylated Fibroblast Growth Factor Receptor 2 alpha (FGFR2a) in KATO III spiked whole blood assay, KATO III cells were purchased from ATCC and maintained in Iscove's medium with 20% FBS (Gibco/Life Technologies). […] 50 uL of the cells were then spiked into a 96-deep well 2 ml polypropylene assay block (Costar) in the presence or absence of a concentration range of test compounds and 300 ul human heparinized whole blood (Biological Specialty Corp, Colmar Pa.). After 4 hours incubation in 37° C., the red cells were lysed using Qiagen EL buffer and the cell lysates were resuspended in lysis buffer (Cell Signaling) containing standard protease inhibitor cocktail (Calbiochem/EMD) and PMSF (Sigma) for 30 minutes ice. […] IC50 determination was performed by fitting the curve of inhibitor percent inhibition versus the log of the inhibitor concentration using the GraphPad Prism 5.0 software.

P-gp = P-gp (Homo sapiens (Human), UniProt P08183); test: Bidirectional transport across Caco-2 monolayers (P-gp mediated transport); format: in vitro ADME; details: for Papp A→B at 120 min, 3 μM / Papp B→A at 120 min, 3 μM / efflux ratio at 120 min, 3 μM / Papp A→B at 120 min, 30 μM / Papp B→A at 120 min, 30 μM / efflux ratio at 120 min, 30 μM / Papp A→B at 120 min, 1 μM / Papp B→A at 120 min, 1 μM: human; for efflux ratio at 120 min, 3 μM / efflux ratio at 120 min, 30 μM: read-out: Efflux Ratio (B-A/A-B)
Protocol: (§3) Caco-2 cells were grown in 96-well transwell plates with a seeding density of 14000 cell/well in DMEM medium. To determine the permeability in the absorptive direction (A-B), the test compound in HBSS was added to the donor compartment (apical side), and 4% BSA in HBSS was added into the receiver compartment (basolateral side). To determine whether a compound is a P-gp substrate, permeability values were measured in both the A-B and B-A directions (bidirectional transport assay) in the absence of 4% BSA. Digoxin and cyclosporine A were included as positive controls for P-gp substrate and inhibitor, respectively, to ensure the functionality of P-gp in the bidirectional transport assay. The test compound at various concentrations was added in the donor compartment (apical side for A-B transport and basolateral side for B-A transport) while HBSS solution was added in the receiver compartment (basolateral side for A-B transport and apical side for B-A transport). For permeability studies in the A-B direction, the donor volume was 0.075 mL, and the receiver volume was 0.25 mL. For permeability studies in the B-A direction, the donor volume was 0.25 mL, and the receiver volume was 0.075 mL. The incubation was carried out at 37° C. for 120 minutes. Transepithelial electrical resistance (TEER) was measured before and after the 120 minutes incubation to ensure the integrity of the cell monolayers. At the end of the incubation period, samples were removed from both the donor and receiver sides and mixed with acetonitrile for protein precipitation. The supernatants were collected after centrifugation for analysis using LC-MS/MS method.
(§4) Permeability coefficient (Papp) values from Caco-2 studies were determined using the following equation: Papp(cm/s)=(F*VD)/(SA*MD) where the flux rate (F, mass/time) was calculated from the slope of cumulative amounts of compound of interest on the receiver side, SA is the surface area of the cell membrane, VD is the donor volume, and MD is the initial amount of the solution in the donor chamber.
The efflux ratio from Caco-2 studies was calculated as the ratio of the Papp measured in the B-A direction divided by the Papp in the A-B direction.

[3] = Permeability in Caco-2 cells (absorptive direction A-B); format: in vitro ADME; details: human, Caco-2, 4% BSA in receiver, read-out: CACO2 Pm
Protocol: as §3, §4

Caco-2 cells = test: as above; format: in vitro ADME; details: 4% BSA in receiver
Protocol: as §3, §4

FGFR1 = FGFR1 (Homo sapiens (Human), UniProt P11362); test: FGFR Enzymatic Assay (FRET peptide phosphorylation), FGFR1; format: biochemical
Protocol: as §1, §2

FGFR3 = FGFR3 (Homo sapiens (Human), UniProt P22607); test: FGFR Enzymatic Assay (FRET peptide phosphorylation), FGFR3; format: biochemical
Protocol: as §1, §2

[4] = Caco-2, with cyclosporine A (CSA) 10 μM, with CSA 10 μM
[5] = radioactive dose, single oral dose, healthy male subjects
[6] = Caco-2, with cyclosporine A (CSA) 5 μM, with CSA 5 μM

Chain of P-gp (P08183 whole entry): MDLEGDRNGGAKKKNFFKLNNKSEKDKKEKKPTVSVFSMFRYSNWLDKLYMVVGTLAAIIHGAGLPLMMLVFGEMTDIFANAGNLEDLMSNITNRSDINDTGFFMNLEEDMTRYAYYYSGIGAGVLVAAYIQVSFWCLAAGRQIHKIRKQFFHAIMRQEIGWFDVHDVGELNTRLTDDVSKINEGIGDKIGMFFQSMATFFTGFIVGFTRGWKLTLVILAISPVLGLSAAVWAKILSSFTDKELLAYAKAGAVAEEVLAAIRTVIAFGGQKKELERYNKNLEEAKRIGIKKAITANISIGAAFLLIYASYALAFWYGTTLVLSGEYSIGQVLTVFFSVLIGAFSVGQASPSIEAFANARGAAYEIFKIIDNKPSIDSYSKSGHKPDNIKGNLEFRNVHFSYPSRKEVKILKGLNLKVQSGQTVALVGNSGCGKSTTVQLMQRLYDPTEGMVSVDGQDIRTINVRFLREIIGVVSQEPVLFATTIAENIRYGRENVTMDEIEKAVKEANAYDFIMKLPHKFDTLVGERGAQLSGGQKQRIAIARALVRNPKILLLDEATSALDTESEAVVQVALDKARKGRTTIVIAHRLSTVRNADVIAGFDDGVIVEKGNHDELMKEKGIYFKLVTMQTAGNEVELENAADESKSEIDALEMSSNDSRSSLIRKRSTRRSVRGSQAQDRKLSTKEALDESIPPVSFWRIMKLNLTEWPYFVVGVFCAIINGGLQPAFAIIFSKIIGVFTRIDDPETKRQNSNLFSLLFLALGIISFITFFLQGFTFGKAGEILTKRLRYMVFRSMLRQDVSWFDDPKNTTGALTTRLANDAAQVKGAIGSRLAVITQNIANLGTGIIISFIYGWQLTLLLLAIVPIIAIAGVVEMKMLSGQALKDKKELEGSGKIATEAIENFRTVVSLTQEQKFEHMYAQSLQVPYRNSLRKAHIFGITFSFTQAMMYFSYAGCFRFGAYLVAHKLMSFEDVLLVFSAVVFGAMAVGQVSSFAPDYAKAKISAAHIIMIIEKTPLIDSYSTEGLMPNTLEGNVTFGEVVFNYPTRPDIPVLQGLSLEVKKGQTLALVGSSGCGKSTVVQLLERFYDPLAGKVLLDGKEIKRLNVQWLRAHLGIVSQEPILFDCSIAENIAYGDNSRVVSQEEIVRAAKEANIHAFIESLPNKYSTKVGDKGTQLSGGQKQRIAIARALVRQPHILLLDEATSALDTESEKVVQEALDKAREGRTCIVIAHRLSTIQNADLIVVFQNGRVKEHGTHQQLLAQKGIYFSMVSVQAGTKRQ
Chain of FGFR3 (P22607 23-806): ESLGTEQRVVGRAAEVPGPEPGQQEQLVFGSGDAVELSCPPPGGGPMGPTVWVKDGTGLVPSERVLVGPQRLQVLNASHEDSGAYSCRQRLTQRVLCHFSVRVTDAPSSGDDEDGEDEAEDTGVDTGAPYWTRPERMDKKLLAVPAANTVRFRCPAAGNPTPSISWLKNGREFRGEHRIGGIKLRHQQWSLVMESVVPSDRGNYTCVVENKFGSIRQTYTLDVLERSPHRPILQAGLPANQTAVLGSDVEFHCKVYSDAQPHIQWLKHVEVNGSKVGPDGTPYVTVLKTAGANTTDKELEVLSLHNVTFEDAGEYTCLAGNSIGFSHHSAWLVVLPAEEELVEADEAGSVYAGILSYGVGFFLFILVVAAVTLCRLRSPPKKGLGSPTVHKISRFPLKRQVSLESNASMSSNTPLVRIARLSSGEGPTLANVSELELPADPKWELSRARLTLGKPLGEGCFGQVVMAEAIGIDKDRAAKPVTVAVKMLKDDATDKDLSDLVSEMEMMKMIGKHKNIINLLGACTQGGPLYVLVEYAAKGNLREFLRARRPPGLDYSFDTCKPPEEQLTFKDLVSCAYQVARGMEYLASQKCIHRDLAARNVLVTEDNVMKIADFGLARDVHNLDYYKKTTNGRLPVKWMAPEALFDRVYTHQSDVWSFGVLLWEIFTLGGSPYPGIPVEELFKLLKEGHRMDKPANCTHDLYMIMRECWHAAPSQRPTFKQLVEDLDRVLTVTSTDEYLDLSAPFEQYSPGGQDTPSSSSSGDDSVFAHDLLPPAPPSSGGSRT
Chain of FGFR1 (P11362 22-822): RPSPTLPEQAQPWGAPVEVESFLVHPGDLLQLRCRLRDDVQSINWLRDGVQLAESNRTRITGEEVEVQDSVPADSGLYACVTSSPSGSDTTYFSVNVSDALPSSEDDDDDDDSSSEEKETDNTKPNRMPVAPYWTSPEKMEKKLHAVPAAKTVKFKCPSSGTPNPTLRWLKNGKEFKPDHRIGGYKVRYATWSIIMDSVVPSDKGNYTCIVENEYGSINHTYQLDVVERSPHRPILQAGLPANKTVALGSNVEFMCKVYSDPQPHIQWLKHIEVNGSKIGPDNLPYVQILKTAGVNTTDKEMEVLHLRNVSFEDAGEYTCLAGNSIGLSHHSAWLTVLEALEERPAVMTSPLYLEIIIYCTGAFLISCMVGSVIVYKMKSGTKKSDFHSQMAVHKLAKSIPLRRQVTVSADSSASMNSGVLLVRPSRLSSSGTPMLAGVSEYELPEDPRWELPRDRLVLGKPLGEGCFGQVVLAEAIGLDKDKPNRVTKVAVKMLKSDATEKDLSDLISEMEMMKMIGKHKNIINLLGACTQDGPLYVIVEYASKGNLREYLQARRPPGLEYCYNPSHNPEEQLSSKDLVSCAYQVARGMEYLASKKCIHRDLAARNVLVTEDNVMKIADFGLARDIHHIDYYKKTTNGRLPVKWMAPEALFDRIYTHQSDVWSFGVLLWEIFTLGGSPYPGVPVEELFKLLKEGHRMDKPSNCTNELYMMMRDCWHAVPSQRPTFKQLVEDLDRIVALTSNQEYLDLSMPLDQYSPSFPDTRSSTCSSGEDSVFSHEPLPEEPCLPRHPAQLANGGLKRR
Chain of tyrosine-phosphorylated Fibroblast Growth Factor Receptor 2 alpha (FGFR2α) in KATO III cells (P21802 22-821 limits assumed): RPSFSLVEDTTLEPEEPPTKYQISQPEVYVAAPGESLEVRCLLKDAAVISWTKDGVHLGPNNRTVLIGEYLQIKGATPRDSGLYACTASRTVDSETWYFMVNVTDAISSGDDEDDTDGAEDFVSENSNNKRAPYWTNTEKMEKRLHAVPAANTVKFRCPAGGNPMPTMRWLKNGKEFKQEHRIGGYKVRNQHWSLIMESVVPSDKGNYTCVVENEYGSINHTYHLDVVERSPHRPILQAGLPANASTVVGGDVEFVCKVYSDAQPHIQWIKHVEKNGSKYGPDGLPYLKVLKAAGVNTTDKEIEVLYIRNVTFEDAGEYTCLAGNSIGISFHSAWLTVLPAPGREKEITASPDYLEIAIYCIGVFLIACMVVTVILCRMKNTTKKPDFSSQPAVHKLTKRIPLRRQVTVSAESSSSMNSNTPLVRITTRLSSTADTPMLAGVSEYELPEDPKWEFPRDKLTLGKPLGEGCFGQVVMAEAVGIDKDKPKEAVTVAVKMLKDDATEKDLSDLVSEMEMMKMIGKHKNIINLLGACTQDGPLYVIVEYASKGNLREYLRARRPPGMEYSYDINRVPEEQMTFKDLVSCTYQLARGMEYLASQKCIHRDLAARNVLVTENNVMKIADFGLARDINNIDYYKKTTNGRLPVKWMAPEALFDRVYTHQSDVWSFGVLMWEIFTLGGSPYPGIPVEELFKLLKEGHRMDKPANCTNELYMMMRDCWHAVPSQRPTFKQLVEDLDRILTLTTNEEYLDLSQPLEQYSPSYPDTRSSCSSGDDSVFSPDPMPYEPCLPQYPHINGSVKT
Chain of FGFR2 (P21802 22-821): as the sequence (P21802 22-821 limits assumed) above

Row | % of Administered Dose in Feces Samples ([1]; 0-24 h) [%] | % of Administered Dose in Feces Samples ([1]; 24-48 h) [%] | % of Administered Dose in Feces Samples ([1]; 48-72 h) [%] | % of Administered Dose in Feces Samples ([1]; 72-96 h) [%] | % of Administered Dose in Feces Samples ([1]; 96-120 h) [%] | % of Administered Dose in Feces Samples ([1]; 120-144 h) [%] | % of Administered Dose in Feces Samples, Sum [1] [%] | Papp A→B at 120 min, 30 μM (P-gp; Caco-2, no inhibitor) [×10⁻⁶ cm/s] | Papp B→A at 120 min, 30 μM (P-gp; Caco-2, no inhibitor) [×10⁻⁶ cm/s] | Papp A→B at 120 min [3] [×10⁻⁶ cm/s] | CACO2 Pm (Caco-2 cells) [×10E−6 cm/s] | Compound | IC50 (FGFR2) [nM] | IC50 (FGFR1) [nM] | IC50 (FGFR3) [nM] | % Total Radioactivity Pool of Hamilton Pools (0-24 h) ([1]; 0-24 h) [%] | other results
1 | <0.1 | 11.4 | 14.5 | 14.5 | 1.6 | 2.9 | 44.4 | 0.41 ± 0.07 | 7.7 ± 2.8 | 0.5 | 0.5 | CCN1C(=O)N(c2c(F)c(O)cc(OC)c2F)Cc2cnc3[nH]c(CN4CCOCC4)cc3c21 [Compound 2, 3-(2,6-difluoro-3-hydroxy-5-methoxyphenyl)-1-ethyl-8-(morpholinomethyl)-1,3,4,7-tetrahydro-2H-pyrrolo[3′,2′:5,6]pyrido[4,3-d]pyrimidin-2-one] | < 10 | < 10 | < 10 |  | IC50 ([2]; KATO III cells spiked into human whole blood, 4 hours; read-out: FGFR2_WB_ELISA-KATOIII IC50): 50 to 250 nM; substrate for Pgp transport (P-gp; comparison of efflux ratios at 30 μM): more effective substrate for Pgp transport than Compound 1; Papp A→B at 120 min, 3 μM (P-gp; [4]): 0.65 ± 0.11 ×10⁻⁶ cm/s; Papp B→A at 120 min, 3 μM (P-gp; [4]): 2.2 ± 0.49 ×10⁻⁶ cm/s; efflux ratio at 120 min, 3 μM (P-gp; [4]): 3.3 ± 1.2; Papp A→B at 120 min, 30 μM (P-gp; [4]): 2 ± 0.33 ×10⁻⁶ cm/s; Papp B→A at 120 min, 30 μM (P-gp; [4]): 3.1 ± 1.2 ×10⁻⁶ cm/s; efflux ratio at 120 min, 30 μM (P-gp; [4]): 1.5 ± 0.59; Papp A→B at 120 min, 3 μM (P-gp; Caco-2, no inhibitor): 0.43 ± 0.15 ×10⁻⁶ cm/s; Papp B→A at 120 min, 3 μM (P-gp; Caco-2, no inhibitor): 11 ± 8 ×10⁻⁶ cm/s; efflux ratio at 120 min, 3 μM (P-gp; Caco-2, no inhibitor): 25 ± 11; efflux ratio at 120 min, 30 μM (P-gp; Caco-2, no inhibitor): 19
2 |  | 0.5 | 2.3 | 1.1 | 0.2 | 0.4 | 4.5 |  |  |  |  | CCN1C(=O)N(c2c(F)c(O)cc(O)c2F)Cc2cnc3[nH]c(CN4CCOCC4)cc3c21 [Compound 4, 3-(2,6-difluoro-3,5-dihydroxyphenyl)-1-ethyl-8-(morpholinomethyl)-1,3,4,7-tetrahydro-2H-pyrrolo[3′,2′:5,6]pyrido[4,3-d]pyrimidin-2-one] |  |  |  |  | 
3 | 0.1 | 0.6 | 0.4 | 0.2 | 0.0 | 0.0 | 1.4 | 21 ± 1.1 | 13 ± 1.6 | 11 | 11 | CCN1C(=O)N(c2c(F)c(OC)cc(OC)c2F)Cc2cnc3[nH]c(CN4CCOCC4)cc3c21 [Compound 1, 3-(2,6-difluoro-3,5-dimethoxyphenyl)-1-ethyl-8-(morpholin-4-ylmethyl)-1,3,4,7-tetrahydro-2H-pyrrolo[3′,2′:5,6]pyrido[4,3-d]pyrimidin-2-one] |  |  |  | 64.5 | overall recovery of radioactivity in urine and feces ([1]; over the 240 hour study): 95.1%; time of peak total radioactivity and plasma Compound 1 concentrations ([1]; post dose, single oral dose, fasted): about 2.0 hours; dose recovered in feces [1, 5]: 82.4%; dose recovered in urine [1, 5]: 12.6%; % of Administered Dose in Urine Sample ([1]; urine, 0-6 h): 0.5%; % of Administered Dose in Urine Sample ([1]; urine, 6-12 h): 0.2%; % of Administered Dose in Urine Sample ([1]; urine, 12-24 h): 0.2%; % of Administered Dose in Urine Sample ([1]; urine, 24-48 h): 0.2%; % of Administered Dose in Urine Sample, Sum ([1]; urine, sum 0-48 h): 1.0%; Papp A→B at 120 min, 1 μM (P-gp; [6]): 12 ± 2.3 ×10⁻⁶ cm/s; Papp B→A at 120 min, 1 μM (P-gp; [6]): 9 ± 1.8 ×10⁻⁶ cm/s; Papp A→B at 120 min, 30 μM (P-gp; [6]): 18 ± 0.75 ×10⁻⁶ cm/s; Papp B→A at 120 min, 30 μM (P-gp; [6]): 12 ± 1.3 ×10⁻⁶ cm/s; Papp A→B at 120 min, 1 μM (P-gp; Caco-2, no inhibitor): 7.3 ± 1.6 ×10⁻⁶ cm/s; Papp B→A at 120 min, 1 μM (P-gp; Caco-2, no inhibitor): 11 ± 0.95 ×10⁻⁶ cm/s

The remaining lines, values behind:

Row | Compound | % of Administered Dose in Feces Samples ([1]; 0-24 h) [%] | % of Administered Dose in Feces Samples ([1]; 24-48 h) [%] | % of Administered Dose in Feces Samples ([1]; 48-72 h) [%] | % of Administered Dose in Feces Samples ([1]; 72-96 h) [%] | % of Administered Dose in Feces Samples ([1]; 96-120 h) [%] | % of Administered Dose in Feces Samples ([1]; 120-144 h) [%] | % of Administered Dose in Feces Samples, Sum [1] [%] | Papp A→B at 120 min, 30 μM (P-gp; Caco-2, no inhibitor) [×10⁻⁶ cm/s] | Papp B→A at 120 min, 30 μM (P-gp; Caco-2, no inhibitor) [×10⁻⁶ cm/s] | Papp A→B at 120 min [3] [×10⁻⁶ cm/s] | CACO2 Pm (Caco-2 cells) [×10E−6 cm/s] | IC50 (FGFR2) [nM] | IC50 (FGFR1) [nM] | IC50 (FGFR3) [nM] | % Total Radioactivity Pool of Hamilton Pools (0-24 h) ([1]; 0-24 h) [%] | other results
4 | CCN1C(=O)N(c2c(F)c(OC)cc(OC)c2F)C(O)c2cnc3[nH]c(CN4CCOCC4)cc3c21 (centres unmarked) [Compound 3, 3-(2,6-difluoro-3,5-dimethoxyphenyl)-1-ethyl-4-hydroxy-8-(morpholinomethyl)-1,3,4,7-tetrahydro-2H-pyrrolo[3′,2′:5,6]pyrido[4,3-d]pyrimidin-2-one] |  |  |  |  |  |  |  |  |  |  |  | 10 to 100 | 10 to 100 | 100 to 500 | 6.0 | IC50 ([2]; read-out: FGFR2_WB_ELISA-KATOIII IC50; KATO III cells spiked into human whole blood, 4 hours): 1000 to 3000 nM
5 | CCN1C(=O)N(c2c(F)c(O)cc(OC)c2F)Cc2cnc3[nH]c(C(=O)O)cc3c21 [Compound 5, 3-(2,6-difluoro-3-hydroxy-5-methoxyphenyl)-1-ethyl-2-oxo-2,3,4,7-tetrahydro-1H-pyrrolo[3′,2′: 5,6]pyrido[4,3-d]pyrimidine-8-carboxylic acid] |  | 0.4 | 0.6 | 0.5 | 0.0 | 0.1 | 1.6 |  |  |  |  |  |  |  |  | 
6 | [2H]C([2H])([2H])Oc1cc(OC([2H])([2H])[2H])c(F)c(N2Cc3cnc4[nH]c(CN5CCOCC5)cc4c3N(CC)C2=O)c1F [Compound 6, 3-(2,6-difluoro-3,5-bis(methoxy-d3)phenyl)-1-ethyl-8-(morpholinomethyl)-1,3,4,7-tetrahydro-2H-pyrrolo[3′,2′:5,6]pyrido[4,3-d]pyrimidin-2-one] |  |  |  |  |  |  |  |  |  | 16 |  |  |  |  |  | 
